# Test: Solubility in toluene
# Format: physicochemical
# Details: 1 % by mass in toluene
# Description: A preparation of 1 % by mass toluene solution was tried employing Compound C below instead of Compound 1 in accordance with the same procedures as those conducted in Example 1.
# A preparation of 1 % by mass toluene solution was tried employing Compound D below instead of Compound 1 in accordance with the same procedures as those conducted in Example 1.
row,Preparation of 1 % by mass toluene solution,SMILES
1,did not dissolve in toluene,"c1ccc(-c2ccc(N(c3ccc(-c4ccccc4)cc3)c3ccc(-c4ccc(N(c5ccc(-c6ccccc6)cc5)c5ccc(-c6ccccc6)cc5)cc4)cc3)cc2)cc1 [Compound D, reference compound]"
2,did not dissolve in toluene,"c1ccc(N(c2ccc(-c3ccc(N(c4ccccc4)c4cccc5ccccc45)cc3)cc2)c2cccc3ccccc23)cc1 [Compound C, reference compound]"

# Same assay, conditions: toluene; soluble in an amount of ... or more
row,SMILES,Solubility (toluene)
1,c1ccc(N(c2ccc(-c3ccc(N(c4ccccc4)c4cccc5ccccc45)cc3)cc2)c2ccc(-c3cccc(-c4cccc(-c5ccc(N(c6ccccc6)c6ccc(-c7ccc(N(c8ccccc8)c8cccc9ccccc89)cc7)cc6)cc5)c4)c3)cc2)cc1 [Compound 5],≥ 1 wt %
2,CCC(C)c1ccc(N(c2ccc(-c3ccc(-c4cccc(-c5cccc(-c6ccc(-c7ccc(N(c8ccc(-c9ccc(N(c%10ccc(-c%11ccccc%11)cc%10)c%10ccc(-c%11ccccc%11)cc%10)cc9)cc8)c8ccc(C(C)CC)cc8)cc7)cc6)c5)c4)cc3)cc2)c2ccc(-c3ccc(N(c4ccc(-c5ccccc5)cc4)c4ccc(-c5ccccc5)cc4)cc3)cc2)cc1 (centres unmarked) [Compound 7],≥ 1 wt %
3,CCC(C)c1ccc(N(c2ccc(-c3ccc(-c4cccc(-c5ccc(-c6ccc(N(c7ccc(-c8ccc(N(c9ccccc9)c9ccccc9)cc8)cc7)c7ccc(C(C)CC)cc7)cc6)cc5)c4)cc3)cc2)c2ccc(-c3ccc(N(c4ccccc4)c4ccccc4)cc3)cc2)cc1 (centres unmarked) [Compound 8],≥ 1 wt %
4,CCCCCCCCC1(CCCCCCCC)c2cc(N(c3ccccc3)c3ccc(-c4ccc(N(c5ccccc5)c5ccc6c(c5)C(C)(C)c5ccccc5-6)cc4)cc3)ccc2-c2ccc(N(c3ccccc3)c3ccc(-c4ccc(N(c5ccccc5)c5ccc6c(c5)C(C)(C)c5ccccc5-6)cc4)cc3)cc21 [Compound 4],≥ 1 wt %
5,CCC(C)c1ccc(N(c2ccc(-c3ccc(N(c4ccccc4)c4ccc5c(c4)C(C)(C)c4ccccc4-5)cc3)cc2)c2ccc(-c3cccc(-c4ccc(N(c5ccc(-c6ccc(N(c7ccccc7)c7ccc8c(c7)C(C)(C)c7ccccc7-8)cc6)cc5)c5ccc(C(C)CC)cc5)cc4)c3)cc2)cc1 (centres unmarked) [Compound 3],≥ 1 wt %
6,CC1(C)c2ccccc2-c2ccc(N(c3ccccc3)c3ccc(-c4ccc(N(c5ccccc5)c5ccc(-c6cccc(-c7ccc(N(c8ccccc8)c8ccc(-c9ccc(N(c%10ccccc%10)c%10ccc%11c(c%10)C(C)(C)c%10ccccc%10-%11)cc9)cc8)cc7)c6)cc5)cc4)cc3)cc21 [Compound 2],≥ 1 wt %

# Results, then the compound that gave them:
row,Solubility (toluene),SMILES
1,≥ 1 wt %,CC1(C)c2ccccc2-c2ccc(N(c3ccccc3)c3ccc(-c4ccc(N(c5ccccc5)c5ccc(-c6cccc(-c7cccc(-c8ccc(N(c9ccccc9)c9ccc(-c%10ccc(N(c%11ccccc%11)c%11ccc%12c(c%11)C(C)(C)c%11ccccc%11-%12)cc%10)cc9)cc8)c7)c6)cc5)cc4)cc3)cc21 [Compound 9]
2,≥ 5 wt %,CCCCCCCCC1(CCCCCCCC)c2cc(N(c3ccccc3)c3ccc(-c4ccc(N(c5ccc(-c6ccccc6)cc5)c5ccc(-c6ccccc6)cc5)cc4)cc3)ccc2-c2ccc(N(c3ccccc3)c3ccc(-c4ccc(N(c5ccc(-c6ccccc6)cc5)c5ccc(-c6ccccc6)cc5)cc4)cc3)cc21 [Compound 10]

# Test: Ionization potential
# Format: physicochemical
# Details: not given
row,Ionization potential,SMILES
1,5.14 eV,CCCCCCCCC1(CCCCCCCC)c2cc(N(c3ccccc3)c3ccc(-c4ccc(N(c5ccc(-c6ccccc6)cc5)c5ccc(-c6ccccc6)cc5)cc4)cc3)ccc2-c2ccc(N(c3ccccc3)c3ccc(-c4ccc(N(c5ccc(-c6ccccc6)cc5)c5ccc(-c6ccccc6)cc5)cc4)cc3)cc21 [Compound 10]

# From EP1880990A1, “NOVEL ORGANIC ELECTROLUMINESCENT MATERIAL, ORGANIC ELECTROLUMINESCENT ELEMENT EMPLOYING THE SAME, AND THIN-FILM-FORMING SOLUTION FOR ORGANIC ELECTROLUMINESCENCE” (IDEMITSU KOSAN CO., LTD., priority 2005, dated 2006)
